This is an account of results in BindingDB's records for doi:10.1021/jm00107a051 (Merck Sharp and Dohme Research Laboratories, 1991).

Each structure is given as a SMILES string.

For this experiment, the target named is T1, Dimer of Gag-Pol polyprotein [489-587] (Human immunodeficiency virus 1, UniProt P12497).
T1 construct: 489-587
As to the kind of experiment: Protease Inhibition Assay. The settings on record: pH 5.5; 30 °C. How it is done:
Sensitivity of HIV-1 protease activity to protease inhibitors was determined by a peptide substrate cleavage assay. Protease products were analyzed on a reverse-phase high-pressure liquid chromatograph.
By IC50 is commonly meant the concentration needed to halve the response being measured. Molecule `CC(C)(C)OC(=O)N[C@@H](Cc1ccccc1)[C@@H](O)C[C@@H](Cc1ccccc1)C(=O)N[C@H]1c2ccccc2[C@@H](N)[C@H]1O` [tert-butyl N-[(2S,3S,5R)-5-{[(1S,2R,3R)-3-amino-2-hydroxy-2,3-dihydro-1H-inden-1-yl]carbamoyl}-5-benzyl-3-hydroxy-1-phenylpentan-2-yl]carbamate] showed a 50% inhibitory concentration (IC50) of 1.9 nM.
Regarding `CC(C)(C)OC(=O)N[C@@H](Cc1ccccc1)[C@@H](O)C[C@@H](Cc1ccccc1)C(=O)N[C@H]1c2ccccc2C[C@H]1C(N)=O` [tert-butyl N-[(2S,3S,5R)-5-benzyl-5-{[(1R,2R)-2-carbamoyl-2,3-dihydro-1H-inden-1-yl]carbamoyl}-3-hydroxy-1-phenylpentan-2-yl]carbamate], the concentration for half-maximal inhibition (IC50) amounted to 1.8 nM.
The molecule `CC(C)(C)OC(=O)N[C@@H](Cc1ccccc1)[C@@H](O)C[C@@H](Cc1ccccc1)C(=O)N[C@@H]1c2ccccc2C[C@@H]1O` [tert-butyl N-[(2S,3S,5R)-5-benzyl-3-hydroxy-5-{[(1R,2S)-2-hydroxy-2,3-dihydro-1H-inden-1-yl]carbamoyl}-1-phenylpentan-2-yl]carbamate] displayed an IC50 of 229 nM.
The molecule `CC(C)(C)OC(=O)N[C@@H](Cc1ccccc1)[C@@H](O)C[C@@H](Cc1ccccc1)C(=O)NC1Cc2ccccc2C1` [tert-butyl N-[(2S,3S,5R)-5-benzyl-5-(2,3-dihydro-1H-inden-2-ylcarbamoyl)-3-hydroxy-1-phenylpentan-2-yl]carbamate] gave a half-inhibitory concentration (IC50) of 19 nM.
